{"source": "paper PMC7339578", "about": "“Multiple circulating alkaloids and saponins from intravenous Kang-Ai injection inhibit human cytochrome P450 and UDP-glucuronosyltransferase isozymes: potential drug–drug interactions” (Chinese Medicine, 2020)", "key": {"CYP and UGT enzymes": {"system": "CYP and UGT enzymes", "assay": "Inhibition of the panel of eight CYP and three UGT isozymes (statements over all enzymes)", "type": "in vitro ADME, human", "details": "compound 100 μM", "description": "After centrifugation (13,800g, 10 min), the supernatant (8 μL) was obtained for determination by UHPLC system.\nIn this study, phenacetin (100 μM), coumarin (100 μM), bupropion (100 μM), paclitaxel (60 μM), tolbutamide (200 μM), mephenytoin (100 μM), chlorzoxazone (200 μM) and nifedipine (40 μM) have been used as the probe substrates for CYP1A2, 2A6, 2B6, 2C8, 2C9, 2C19, 2E1 and 3A4, respectively.\nSimilarly, β-estradiol (60 μM), propofol (40 μM) and 4-MU (350 μM) were typically used as the substrates for UGT1A1, 1A9 and 2B7, respectively. After optimization of incubation conditions (Additional file 1: Fig. S2), the protein concentrations for UGT1A1, 1A9, and 2B7 were 0.125, 0.05, and 0.05 mg/mL, respectively."}, "NTCP": {"system": "NTCP", "parameters": "method as in PMID 30978651", "details": "cited from earlier work"}, "[1]": {"parameters": "method as in earlier work", "details": "rat plasma; oxymatrine 30 mg/kg intravenously; cited from earlier work"}, "[2]": {"system": "HepG2, MCF-7, HeLa, A549 cells", "parameters": "method as in PMID 31283981", "details": "cited from earlier work"}, "[3]": {"system": "SW-620, BGC823, A375 cells", "parameters": "method as in PMID 31283981", "details": "cited from earlier work"}, "[4]": {"parameters": "method as in PMID 26586934", "details": "pooled HLM; read-out: Km (metabolism to matrine); cited from earlier work"}, "[5]": {"parameters": "method as in PMID 26586934", "details": "HIM; read-out: Km (metabolism to matrine); cited from earlier work"}}, "note": "Where two headings read alike, the source gives them in different places.", "data": [{"smiles": "CC(C)=CCC[C@](C)(O)[C@H]1CC[C@]2(C)[C@@H]1[C@H](O)C[C@@H]1[C@@]3(C)CC[C@H](O)C(C)(C)[C@@H]3[C@@H](O[C@@H]3O[C@H](CO)[C@@H](O)[C@H](O)[C@H]3O[C@@H]3O[C@H](CO)[C@@H](O)[C@H](O)[C@H]3O)C[C@]12C", "note": "[Compound C7, Ginsenoside Rf]", "values": [{"measurement": "changes against these CYP and UGT enzymes", "setting": "CYP and UGT enzymes", "value": "almost no changes"}]}, {"smiles": "CC(C)=CCC[C@](C)(O[C@@H]1O[C@H](CO)[C@@H](O)[C@H](O)[C@H]1O)[C@H]1CC[C@]2(C)[C@@H]1[C@H](O)C[C@@H]1[C@@]3(C)CC[C@H](O)C(C)(C)[C@@H]3[C@@H](O[C@@H]3O[C@H](CO)[C@@H](O)[C@H](O)[C@H]3O)C[C@]12C", "note": "[Compound C6, Ginsenoside Rg1]", "values": [{"measurement": "IC50", "setting": "NTCP", "value": 50.5, "unit": "µM"}]}, {"smiles": "O=C1CCC[C@@H]2[C@H]3CCC[N+]4([O-])CCC[C@@H](CN12)[C@@H]34", "note": "(stereo partly shown) [Compound A3, Oxymatrine]", "values": [{"measurement": "AUC0–12h", "setting": "[1]", "value": 16234.27, "unit": "ng·h/mL"}, {"measurement": "CL", "setting": "[1]", "value": 3.10, "unit": "L/h"}, {"measurement": "Cmax", "setting": "[1]", "value": 32847.57, "unit": "ng/mL"}, {"measurement": "t1/2", "setting": "[1]", "value": 34.2, "unit": "min"}, {"measurement": "reported effective concentrations (IC50 or EC50 values)", "setting": "[2]", "value": "473.48 to 3787.84", "unit": "µmol/L"}, {"measurement": "effective concentrations to inhibit tumor cell viability", "setting": "[3]", "value": "0.10 to 40.00", "unit": "µmol/L"}, {"measurement": "Km", "setting": "[4]", "value": 221, "unit": "µM"}, {"measurement": "Km", "setting": "[5]", "value": 150, "unit": "µM"}]}]}
